Experimental data taken from patent publication US20030144477A1, “Immunodominant acetylcholine receptor alpha subunit peptide: MHC complexes” (Corixa Corporation, priority 2001, published 2003).
Blank lines part the entries; values can stand above or below the molecule they belong to. Peptide text beside a SMILES is read from it.

What was measured:
HLA-DR2 = experiment: IC50
Text: Table printed on a drawing sheet, FIGURE 4
The best fit of AChRα peptide sequences to published HLA-DR2 motifs is indicated along with the IC50 value.
First copying reader's note: Sequences are printed with horizontal offsets as a motif alignment; the offsets are not reproduced in the grid.

HLA-DR1 = experiment: DELFIA europium-based competitive binding assay, HLA-DR1; parameters: species or system human; conditions: competitive binding to HLA-DR1
[1] = molecular target: HLA-DR3 (a mix of DRB1*0301 and DRB3*0101); experiment: DELFIA competitive binding assay against biotinylated MBP 84-102, solubilized HLA-DR3; parameters: species or system human; conditions: for IC50: competitive binding to solubilized HLA-DR3, pH 5.5, vs biotinylated MBP 84-102; for affinity for HLA-DR3: in words, from IC50
Text: (§1) Important peptides in MG can be identified, for example, by screening a set of overlapping AChR peptides for binding to HLA-DR2 and HLA-DR3. The binding affinity of a peptide to the MHC compound can be measured using a variety of binding assays known to those of skill in the art. An example of suitable binding assay is the europium-based competitive binding assay (see, e.g., Tompkins et al. (1993) J. Immunol. Methods 163:209-216). Additionally, the capacity of the peptides of the invention to induce a T cell response can be determined using a variety of standard methods, known to those of skill in the art, as described below.
(§2) A set of 68 overlapping AChRα peptides (14 mer with 7 amino acids overlapping) was tested by dissociation-enhanced lenthanide fluoroimmunoassay (“DELFIA”) competitive binding assay for their relative affinity to […]. […] The sequence of the AChRα subunit is shown with each of the transmembrane regions (M1-M4) indicated by a shaded box.) Ten-fold dilutions (preferably 1-100,000 nM) of unlabeled AChRα peptides were co-incubated at pH 5.5 with the biotinylated myelin basic protein peptide MBP 84-102, and the IC50 of binding to solubilized HLA-DR2 (a mix of DRB1*1501 and DRB5*0101) or HLA-DR3 (a mix of DRB1*0301 and DRB3*0101) was measured. Measurement of the IC50 is preferably done by europium-streptavidin dissociation-enhanced lenthanide fluoroimmunoassay (DELFIA) and the IC50 typically calculated by four parameter fit analysis with the software program SOFTmax Pro. FIG. 2 lists the IC50s of each AChRα peptide binding to HLA-DR2 and HLA-DR3.

[2] = molecular target: solubilized HLA-DR2 (a mix of DRB1*1501 and DRB5*0101) (Homo sapiens, UniProt P01903+P01911+Q30154); experiment: DELFIA competitive binding assay against biotinylated MBP 84-102, solubilized HLA-DR2; conditions: for relative affinity for HLA-DR2: in words, from IC50 / 1/IC50 plot
Text: as §1
A set of 68 overlapping AChRα peptides (14 mer with 7 amino acids overlapping) was tested by dissociation-enhanced lenthanide fluoroimmunoassay (“DELFIA”) competitive binding assay for their relative affinity to HLA-DR4. […] Measurement of the IC50 is preferably done by europium-streptavidin dissociation-enhanced lenthanide fluoroimmunoassay (DELFIA) and the IC50 typically calculated by four parameter fit analysis with the software program SOFTmax Pro.

[3] = molecular target: solubilized DR4 (HLA-DR4); experiment: europium-based competitive binding assay using solubilized DR4; parameters: species or system human; conditions: competitive binding to solubilized DR4
Procedure: as §2
In addition, the relative affinity for HLA-DR4 of a set of sixty nine synthetic overlapping peptides of AchRα (14 mer with 7 amino acids overlapping) was measured by a europium-based competitive binding assay using solubilized DR4. The concentration of AchR peptides required to inhibit 50% binding of a known DR4 binding peptide was calculated for each peptide. High affinity peptides were identified based on their IC50 value.

[4] = tested on: PBMCs from MG patients and normal healthy individuals; experiment: modified ELISPOT assay of T cell reactivity (γ-IFN spots, reactive index); format: cell-based, human; conditions: reactive index above two; HLA type ignored; 9 MG patients vs 30 normals
Text: In addition, a modified ELISPOT assay, termed the Clonal Expansion ELISA-Spot (or CEE-SPOT) assay can also be used in the context of the present invention. In the CEE-SPOT assay, PBMCs are stimulated with antigen for an appropriate amount of time (e.g., 7 days) to promote proliferation of the antigen-specific T cells prior to re-stimulation and lymphokine capture (e.g., on day 10). […] The production of lymphokines can be measured using this assay, including, e.g., IL-2, IL-4, etc. Typically, lymphokine is captured on a filter, preferably a PVDF filter to improve the background and intensity of the spots. Spot counting is typically carried out using videocamera imaging and computer analysis. This type of assay can also be used to identify epitopes derived from natural processing, by first stimulating T cells with the whole protein and then re-stimulating them with peptides derived from the protein.
T cell reactivity of the above peptides to patient and normal healthy individual PBMCs was measured by modified ELISPOT assay. PBMCs obtained from 30 normals and 9 MG patients were included in this study. The above peptides along with TT/PPD as positive control and media as negative control were tested for T cell reactivity. […] Antigen specific cell stimulation profile for each antigen was measured by the secretion of γ-IFN detected as spots using a pair of anti-γIFN antibodies set. […]

Molecule: V I I P C L L F S F L T G L (VIIPCLLFSFLTGL) [AChRα 218-231]
- IC50 (HLA-DR2): 6.79 µM

- IC50 (HLA-DR1): 1.75 µM
- IC50 [1]: 71.3 µM
Molecule: CC[C@H](C)[C@H](NC(=O)[C@H](Cc1ccccc1)NC(=O)[C@H](Cc1ccc(O)cc1)NC(=O)[C@H](CC(C)C)NC(=O)[C@@H]1CCCN1C(=O)[C@H](CC(C)C)NC(=O)[C@H](CCCNC(=N)N)NC(=O)[C@H](CCC(N)=O)NC(=O)[C@H](CCSC)NC(=O)[C@@H](NC(=O)[C@H](Cc1ccccc1)NC(=O)[C@@H](N)Cc1c[nH]cn1)C(C)C)C(=O)N[C@H](C(=O)N[C@@H](CC(N)=O)C(=O)O)C(C)C [AChRα 204-217]

- IC50 (HLA-DR1): > 100 µM
- IC50 [1]: 6.15 µM
- affinity for HLA-DR3 [1]: high affinity
Molecule: CC(C)C[C@H](NC(=O)[C@H](CCCCN)NC(=O)[C@H](C)NC(=O)[C@@H](NC(=O)[C@@H](N)CC(C)C)C(C)C)C(=O)N[C@@H](Cc1ccccc1)C(=O)N[C@@H](CCCCN)C(=O)N[C@@H](CC(=O)O)C(=O)N[C@@H](Cc1ccc(O)cc1)C(=O)N[C@@H](CO)C(=O)N[C@@H](CO)C(=O)N[C@H](C(=O)N[C@H](C(=O)N[C@@H](CCCNC(=N)N)C(=O)N1CCC[C@H]1C(=O)N[C@H](C(=O)O)C(C)C)C(C)C)C(C)C [AChRα 7-22]

- relative affinity for HLA-DR2 [2]: high relative affinity
Molecule: NWVRKVFIDTIPNIMFFS [AChRα 310-327, AChRα subunit peptide fragment, residues 310-327]

- affinity for HLA-DR3 [1]: high affinity
Molecule: DTPYLDITYHFVMQRLPL [AChRα 195-212]

- IC50 (HLA-DR1): 11.2 µM
- IC50 ([2]; competitive binding to solubilized HLA-DR2, pH 5.5, vs biotinylated MBP 84-102): 11 µM
- IC50 [1]: 7.3 µM
- affinity for HLA-DR3 [1]: high affinity
- IC50 [3]: 3.63 µM
Molecule: CC[C@H](C)[C@H](NC(=O)[C@H](CCC(N)=O)NC(=O)[C@H](CC(N)=O)NC(=O)[C@@H](NC(=O)[C@H](CCC(=O)O)NC(=O)[C@H](CC(=O)O)NC(=O)[C@@H](NC(=O)[C@H](CC(N)=O)NC(=O)[C@@H](NC(=O)[C@H](CC(C)C)NC(=O)[C@H](CCC(N)=O)NC(=O)[C@@H](NC(=O)[C@H](CC(C)C)NC(=O)[C@@H](N)CCC(N)=O)[C@@H](C)CC)[C@@H](C)CC)C(C)C)C(C)C)C(=O)O [AChRα 36-49] (H-QLIQLINVDEVNQI-OH; N-terminus and C-terminus assumed)
- per cent of patients that show reactivity compared with per cent of normal healthy individuals [4]: approximately twice

Molecule: TGHITWTPPAIFKS [AChRα 113-126, AChRα subunit peptide fragment, residues 113-126] [listing 1 of 2 here]
- relative affinity for HLA-DR2 [2]: high relative affinity

- affinity for HLA-DR3 [1]: high affinity
Molecule: MKLGTWTYDGSVVAINPESD [AChRα 144-163]

Molecule: TGHITWTPPAIFKS [AChRα 113-126, AChRα subunit peptide fragment, residues 113-126] [listing 2 of 2 here]
- IC50 (HLA-DR2): 2.83 µM

Molecule: V E V T V G L Q L I Q L I N (VEVTVGLQLIQLIN) [AChRα 27-42]
- IC50 (HLA-DR2): 9.18 µM

Molecule: I P N I M F F S T M K R P S R E K Q (IPNIMFFSTMKRPSREKQ) [AChRα 320-337]
- IC50 (HLA-DR2): 6.61 µM
